This test concerns sulphate-reducing prokaryotes (SRP). The protocol:
The bioreactor used was constructed from titanium; this construction eliminated the risk of any production of iron sulphides through corrosion, which in turn would react with injected THPS. […] The column was packed with low-iron sand (Fisher, UK) with a glass fibre plug at the base to prevent the draining of sand during filling. The column fittings (injection and production pipework) were constructed from 316 stainless steel (Swagelok).
The column was maintained at 1000 psig (70 barg) and 24° C.±1° C. The pressure was held between the pump head and the proportional release valve. The use of 1-way valves in the injection head permitted disconnection and maintenance of the pump without depressurisation of the column.
The pump used was a high-pressure liquid chromatography pump (PerkinElmer Series 100). The pump was operated in a continuous fashion at an injection rate of 1 mL/min, injecting into the head of the bioreactor.
Injection fluid was prepared daily on workdays, with three days of fluid prepared on Friday to cover the weekend. During the week, a single pump was used on a continuous basis. Over the weekend, three pumps were used, cycling in three hour injection windows. The injection fluid was stored in a polyethylene terephthalate (PET) nitrogen-pressurised vessel at 2° C.±1° C.
The North Sea seawater used throughout the study was collected from Bridlington, Yorkshire on a quarterly basis. It was de-oxygenated through nitrogen sparging over a 48 hour period. Metabolisable carbon was added to the seawater in the form of volatile fatty acids (VFA) in the ratio of 100 acetate:10 propionate:1 butyrate by weight. Acetate and propionate were added as salt in order to avoid acidification of the injection fluid, whilst butyrate was added as the acid. The pH of the injection fluid was between 7.5 and 8 before the addition of THPS. The VFA totalled 111 mg/L, which, if converted entirely to sulphide (i.e. none used for biomass growth), should permit the production of 67 mg/L H2S.
The bioreactor was inoculated using a mixed consortia of prokaryotes obtained from North Sea seawater and North Sea oil reservoirs. Rawwater Engineering Company Limited (RECL) maintained a mixed consortia of sulphate-reducing prokaryotes (SRP) in bioreactors under the experimental conditions required for the project (24° C., 1000 psig). These bioreactors were used solely for inoculation purposes. Both bioreactors increased the chances of successfully inoculating new bioreactors, by limiting the changes in environmental conditions the microbes were subjected to and thus limiting stress. The column was inoculated with microbes, shut-in for a fortnight and operated under batch flow conditions (140 mL fluid per day in equally spaced thirty-minute injection windows) until SRP were known to be established through the production of hydrogen sulphide.
Effluent samples were collected on a daily basis onto zinc acetate. This reacted with the volatile hydrogen sulphide to form stable zinc sulphide precipitate, which permitted analysis at a later time. All samples were analysed within six hours of collection. The samples were analysed through the standard methylene blue colourimetric procedure, which was calibrated monthly against the iodometric sulphide method.
Three trials were conducted: • Trial 1—Starting with a dose of 30 mg/L THPS, the dose concentration of THPS was reduced in 10 mg/L steps until sulphide recovery was observed. […] This indicated the minimum starting concentration of THPS required to convert the SRP from normal activity to biostasis.

Like-named read-outs stand apart in the source and are kept apart here.

These results are taken from patent US10806147B2, “Treatment method for a hydrocarbon-containing system using a biocide” (RHODIA OPERATIONS, priority 2011, dated 2020).

Consider “Tetrakis(hydroxymethyl)phosphonium sulphate [THPS]”, for which, under “Trial 1, after 86 days total biocide injection, THPS removed entirely”, the “period of continued low hydrogen sulphide after removal of THPS, before gradual rise” value was in the range of 25 to 27 days. Moreover, the “increase in sulphide during dosing” value (Trial 1, dose reduced to 10 mg/L, 14 days) is reported as “no significant increase in sulphide was recorded”. In addition, under “Trial 1, pre-soured bioreactor, 30 mg/L active THPS (60 mg/L Tolcide PS50A, incl. penetrant), continuous, 24 °C, 1000 psig”, the “biological activity and sulphide production on introduction of THPS” value was “collapse in biological activity and sulphide production to sub-mg/L concentrations”. The “biological activity and effluent sulphide on introduction of THPS” value (Trial 2, 30 mg/L THPS plus penetrant, continuous) was “immediate collapse of biological activity and effluent sulphide”. In addition, the “effluent sulphide during reduced dosing” value (Trial 2, 20 and 10 mg/L THPS, biocide injected 91 days in total) is “remained suppressed”. Further, the “biostasis of the column” value (Trial 3, 5 mg/L THPS plus penetrant, slow inhibited increase in effluent sulphide) is recorded as “insufficient to keep the entire column under biostasis”. For the same substance, the effluent sulphide entry (Trial 3, dose increased to 20 mg/L THPS) was “the effluent sulphide collapsed and remained low”; the effluent sulphide entry (Trial 3, dose increased via 10 mg/L to 15 mg/L THPS) is listed as “appeared to stabilise the effluent sulphide”. The “growth of the SRP population” value (Trial 3, sour column, 5 mg/L THPS plus penetrant, continuous) is “rapidly halted the growth of the SRP population”.
